Where no end group is shown, it is not given here.
Legend:
[1] = test system: Cx43 GJ and hemichannel activities; conditions: cited from earlier work
Excerpt: The establishment of HMGB1 as a critical mediator of various inflammatory diseases has prompted an on-going search for endogenous and exogenous modulators of HMGB1 secretion. […] We thus evaluated the alteration of macrophage hemichannel activities in the absence or presence of Cx43 mimetic peptides previously shown to be capable of blocking Cx43 hemichannels. […] Because Cx43 GJ and hemichannels often co-exist in plasma membranes, a definitive elucidation of the functions of Cx43 GJ or hemichannels has been quite challenging. First, genetic deletion would eliminate both channels. Secondly, these two types of Cx channels are susceptible to a similar array of chemical blockers. Latel ...

PKR phosphorylation = conditions: cited from earlier work
Excerpt: (§1) The establishment of HMGB1 as a critical mediator of various inflammatory diseases has prompted an on-going search for endogenous and exogenous modulators of HMGB1 secretion.

HMGB1 secretion = conditions: cited from earlier work
Excerpt: as §1

[2] = test system: macrophage Cx43 hemichannel activities, RAW 264.7 cells; test: Lucifer Yellow dye uptake, hemichannel permeability, calcium-depleted; assay type: cell-based, murine; conditions: LPS 0.5 μg/ml, 16 h, LY 15 min, P < 0.05 versus +LPS
Excerpt: Because connexon is the structural unit for both hemichannel (1 connexon) and gap junction (2 connexons from opposing cells), which are both permeable to similar molecular weight molecules, such as the Lucifer yellow (LY). Thus, the LY dye uptake could be used to determine the channel permeability of both hemichannel (as indicated by the rate of LY entry into the cells) and gap junction channels (as judged by the distance of intercellular LY diffusion). The LY dye uptake assay relied on the ability of this dye present in the extracellular milieu to cross the plasma membrane and became concentrated inside of the cell, which could be quantified by fluorescence microscopy. To determine the effects of Cx43 mimetic peptides on hemichannel permeability, RAW 264.7 cells were subjected to LPS stimulation (0.5 µg/ml, 16 h) before replacing the medium with fresh DMEM containing various Cx43 mimetic peptides, GAP26 (100 µM), TAT-GAP19 (200 µM) or P5 (20 µM). Following a brief incubation (15 min), EGTA (1 mM) was added to deplete free calcium prior to the addition of LY dye (1%). Fifteen min later, cells were fixed with 2% paraformaldehyde, and the number of LY-positive cells was counted. The ratio of LY-positive cells vs. total cell counts (DAPI staining) was used as the measurement of hemichannel permeability.

[3] = test system: Balb/c mice, polymicrobial sepsis (CLP); test: CLP-induced sepsis survival; assay type: in vivo; conditions: i.p., +6, +18 and +36 h post CLP, two weeks; for survivors: saline 50%; for animal survival (in words): CLP, Balb/c mice
Excerpt: This study was approved and performed in accordance with the guidelines of the Institutional Animal Care and Use Committee of the Feinstein Institute for Medical Research, Manhasset, New York, USA (Animal Protocol #2008-033, Approval date: September 10, 2014). To evaluate the effect of various Cx43 mimetic peptides on sepsis lethality, a clinically relevant animal model of sepsis induced by cecal ligation and puncture (CLP) was employed. Briefly, the cecum of Balb/c mice was ligated at about 5 mm from the cecal tip, and then punctured once with a 22-gauge needle. GAP26, TAT-GAP19 or P5 peptides were administered intraperitoneally into mice at indicated doses and time points, and animal survival rates were monitored for up to 2 wks. The Kaplan-Meier method was used to compare the differences in mortality rates between groups.

Cx43 EL1 peptide = molecular target: T1, Cx43 EL1 peptide (Homo sapiens, UniProt P17302); test: Surface Plasmon Resonance, Cx43 EL1 peptide; assay type: binding; conditions: Cx43 EL1 peptide
T1 construct: synthetic full-length Cx43 EL1 or EL2 peptide as judged by the Surface Plasmon Resonance Analysis
T1 sequence (P17302 45-76 limits assumed): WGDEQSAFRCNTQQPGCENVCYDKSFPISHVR

CC1(C)[C@@H](OC(=O)CCC(=O)O)CC[C@]2(C)[C@H]3C(=O)C=C4[C@@H]5C[C@@](C)(C(=O)O)CC[C@]5(C)CC[C@@]4(C)[C@]3(C)CC[C@@H]12 [carbenoxolone]
blocking of Cx43 GJ and hemichannel activities ([1]; no reference given): blocking Cx43 GJ and hemichannel activities | endotoxin-induced PKR phosphorylation (PKR phosphorylation): effectively prevented | PKR-mediated HMGB1 secretion (HMGB1 secretion): effectively prevented

YGRKKRRQRRRK-QIEIKKFK [TAT-GAP19]
effect on LY dye uptake (hemichannel activities) ([2]; TAT-GAP19 200 μM): elevated LY dye uptake | survivors ([3]; 15 mg/kg): 60% | survivors ([3]; 120 mg/kg): 20% | animal survival (in words) [3]: decreased animal survival particularly when given at a comparable higher dose

VCYDKSFPISHVR [GAP26, Cx43 mimetic peptide GAP26 (…), first extracellular loop]
effect on endotoxin-induced hemichannel activities (LY dye uptake) ([2]; GAP26 100 μM): significant impairment of the endotoxin-induced elevation of hemichannel activities | interruption of GJ formation ([1]; after prolonged application, no reference given): interruption of GJ formation after prolonged application | inhibition of Cx43 hemichannel activities or gap junction formation [1]: inhibiting Cx43 hemichannel activities or gap junction formation | animal survival (in words) [3]: reproducibly increased animal survival rates

QPGCEN [P4]
Kd (Cx43 EL1 peptide): 20 µM
